Source: patent publication US20250136572A1, “PARA ACYL SUBSTITUTED DIAZACYCLOHEXENE DERIVATIVES” (Renovel Innovations, Inc., priority 2021, published 2025)

Key:
[1] = Body weight in C57BL/6 mice on high fat diet; type: in vivo, male C57BL/6 mice; settings: for decrease in body weight: compared to the high fat diet control group
[2] = Oral glucose tolerance test in C57BL/6 mice on high fat diet; type: in vivo; set-up: concentration or dose not given beside the values; settings: for reduction in blood glucose at the peak oral glucose tolerance test of 30 minutes: compared with the control high fat diet group
TNF-α = TNF-α in LPS-treated mice; type: in vivo; settings: from the LPS group
[3] = Triglycerides in high fructose fed hamsters; type: in vivo; settings: compared with the high fructose fed group
[4] = Fasting blood glucose in mice on high fat diet; type: in vivo; settings: compared with the control high fat diet group
Blood pressure in rats = type: in vivo; settings: compared to the vehicle group

SMILES: CCOC(=O)C1=C(C)NC(=O)NC1c1ccc(OC(=O)/C=C/c2ccccc2)c(OC)c1 (stereo not shown) [Compound 2, 4-[3-Methoxy-4-(3-phenyl-acryloyloxy)-phenyl]-6-Methyl-2-oxo-1,2,3,4-tetrahydro-pyrimidine-5-carboxylic acid ethyl ester]
- decrease in body weight ([1]; FIG. 6A, C57BL/6 mice): 5%
- decrease in body weight ([1]; FIG. 6B, significant (P<0.0001)): 15%
- reduction in blood glucose at the peak oral glucose tolerance test of 30 minutes [2]: 8%

SMILES: CCOC(=O)C1=C(C)NC(=O)NC1c1ccc(OC(=O)/C=C/c2ccccc2)cc1 (stereo not shown) [Compound 1, 6-Methyl-2-oxo-4-[4-(3-phenyl-acryloyloxy)-phenyl]-1,2,3,4-tetrahydro-pyrimidine-5-carboxylic acid ethyl ester]
- decrease of TNF-α (TNF-α): 59%
- decrease in percent change in body weight ([1]; FIG. 1B, compared with the control high fat diet group): 15%
- reduction in blood glucose at the peak oral glucose tolerance test of 30 minutes [2]: 23%
- decrease in triglycerides [3]: 31%
- decrease in fasting blood glucose [4]: 26%
- decrease in diastolic blood pressure (Blood pressure in rats): 8%
- decrease in systolic blood pressure (Blood pressure in rats): 4%

SMILES: CCOC(=O)C1=C(C)NC(=S)NC1c1ccc(OC(=O)C(C)C)c(OC)c1 (stereo not shown) [Compound 4, 4-(4-Isobutyryloxy-3-methoxy-phenyl)-6-methyl-2-thioxo-1,2,3,4-tetrahydro-pyrimidine-5-carboxylic acid ethyl ester]
- reduction in blood glucose at the peak oral glucose tolerance test of 30 minutes [2]: 33%
- reduction in blood glucose at 120 minutes after glucose administration ([2]; 120 minutes after glucose administration): 26%

SMILES: CCOC(=O)C1=C(C)NC(=O)NC1c1ccc(OC(=O)C(C)C)c(OC)c1 (stereo not shown) [Compound 3, 4-(4-Isobutyryloxy-3-methoxy-phenyl)-6-methyl-2-oxo-1,2,3,4-tetrahydro-pyrimidine-5-carboxylic acid ethyl ester]
- reduction in blood glucose at the peak oral glucose tolerance test of 30 minutes [2]: 6%
